From publication PMC3586729 (Nature Communications, 2013)

Target: T1, F. pringlei R884G mutant C3 PEPC (Flaveria pringlei, UniProt Q01647, R885G)
T1 sequence (Q01647 1-967 R885G): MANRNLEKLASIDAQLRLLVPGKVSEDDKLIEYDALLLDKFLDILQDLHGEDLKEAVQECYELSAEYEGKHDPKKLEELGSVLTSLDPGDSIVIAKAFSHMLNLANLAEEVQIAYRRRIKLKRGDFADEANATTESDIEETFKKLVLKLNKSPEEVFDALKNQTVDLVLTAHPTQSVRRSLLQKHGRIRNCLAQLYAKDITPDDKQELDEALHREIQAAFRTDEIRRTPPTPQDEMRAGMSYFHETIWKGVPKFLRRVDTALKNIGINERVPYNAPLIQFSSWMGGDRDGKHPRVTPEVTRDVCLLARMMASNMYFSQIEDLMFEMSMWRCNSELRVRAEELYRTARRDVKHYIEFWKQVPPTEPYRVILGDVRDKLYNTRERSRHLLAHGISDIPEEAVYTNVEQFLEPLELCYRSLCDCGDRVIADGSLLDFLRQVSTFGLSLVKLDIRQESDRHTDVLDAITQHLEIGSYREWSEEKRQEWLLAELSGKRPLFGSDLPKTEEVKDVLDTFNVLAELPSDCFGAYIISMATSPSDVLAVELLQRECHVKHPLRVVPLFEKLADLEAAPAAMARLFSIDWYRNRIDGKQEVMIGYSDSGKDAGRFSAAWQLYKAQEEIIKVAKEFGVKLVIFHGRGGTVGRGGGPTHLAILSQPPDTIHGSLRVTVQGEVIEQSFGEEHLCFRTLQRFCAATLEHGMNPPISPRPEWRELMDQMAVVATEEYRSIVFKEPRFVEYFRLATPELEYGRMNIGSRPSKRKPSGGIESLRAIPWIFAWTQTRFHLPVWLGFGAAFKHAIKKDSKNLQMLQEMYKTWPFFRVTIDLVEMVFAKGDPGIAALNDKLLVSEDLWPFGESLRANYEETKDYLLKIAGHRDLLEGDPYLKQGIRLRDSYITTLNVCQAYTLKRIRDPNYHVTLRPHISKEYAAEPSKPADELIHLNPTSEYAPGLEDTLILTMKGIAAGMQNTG
Type: biochemical
Conditions: C3 PEPC R884G versus wild-type C3 PEPC from F. pringlei

Q: Which “malate tolerance of the engineered enzyme increased by a factor” value does the source give for O=C(O)CC(O)C(=O)O (stereo not shown) [malate] here?
A: ~ 3
